Measured values as given in PMC7305236, “The atypical chemokine receptor ACKR3/CXCR7 is a broad-spectrum scavenger for opioid peptides” (Nature Communications, 2020).
Where two headings read alike, the source gives them in different places. Starred links: 1 amine or outer side, 2 acyl side, 3 side chain; linkers in the order of their positions; H or OH if unused. Non-standard residues stand in square brackets, D forms with d. Residues, ends and D or L forms follow the SMILES beside them. X1 = N[C@@H](Cc1ccccc1)CN(CC(=O)[*:2])[*:1]

What was measured:
Test in all cases: Figure S2a opioid peptide screen on chemokine receptors
Design in all cases: dose or concentration left out as unconfirmed
CCR3 = molecular target: T1, CCR3 (Homo sapiens, UniProt P51677); settings: read-out: CCR3 activity, ctrl+ = 100, Figure S2a
T1 sequence (P51677 1-355): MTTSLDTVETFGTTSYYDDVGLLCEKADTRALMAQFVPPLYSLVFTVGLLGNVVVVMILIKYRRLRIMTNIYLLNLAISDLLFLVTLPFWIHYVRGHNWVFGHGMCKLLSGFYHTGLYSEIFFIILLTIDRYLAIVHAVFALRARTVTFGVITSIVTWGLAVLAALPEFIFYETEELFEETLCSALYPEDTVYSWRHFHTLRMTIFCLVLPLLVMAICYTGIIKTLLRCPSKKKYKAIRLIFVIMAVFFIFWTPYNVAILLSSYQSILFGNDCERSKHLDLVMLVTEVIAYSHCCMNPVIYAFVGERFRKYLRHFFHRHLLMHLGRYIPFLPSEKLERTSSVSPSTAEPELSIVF

ACKR2 = molecular target: T2, ACKR2 (Homo sapiens, UniProt O00590); type: cell-based
T2 construct: expressed in transfected cells; host or cells: U87 cells (human glioblastoma)
T2 sequence (O00590 1-384): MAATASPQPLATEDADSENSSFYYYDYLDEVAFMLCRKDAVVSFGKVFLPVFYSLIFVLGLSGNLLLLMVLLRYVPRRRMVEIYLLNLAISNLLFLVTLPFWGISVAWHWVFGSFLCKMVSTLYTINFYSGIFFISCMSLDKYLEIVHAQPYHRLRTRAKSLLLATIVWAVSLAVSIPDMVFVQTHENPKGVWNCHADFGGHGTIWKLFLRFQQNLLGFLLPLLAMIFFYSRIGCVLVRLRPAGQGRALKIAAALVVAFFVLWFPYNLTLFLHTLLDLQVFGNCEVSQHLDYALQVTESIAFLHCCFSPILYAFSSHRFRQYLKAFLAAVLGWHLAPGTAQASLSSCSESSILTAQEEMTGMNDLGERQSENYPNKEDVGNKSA

ACKR4 = molecular target: T3, ACKR4 (Homo sapiens, UniProt Q9NPB9); settings: read-out: ACKR4 activity, ctrl+ = 100, Figure S2a
T3 sequence (Q9NPB9 1-350): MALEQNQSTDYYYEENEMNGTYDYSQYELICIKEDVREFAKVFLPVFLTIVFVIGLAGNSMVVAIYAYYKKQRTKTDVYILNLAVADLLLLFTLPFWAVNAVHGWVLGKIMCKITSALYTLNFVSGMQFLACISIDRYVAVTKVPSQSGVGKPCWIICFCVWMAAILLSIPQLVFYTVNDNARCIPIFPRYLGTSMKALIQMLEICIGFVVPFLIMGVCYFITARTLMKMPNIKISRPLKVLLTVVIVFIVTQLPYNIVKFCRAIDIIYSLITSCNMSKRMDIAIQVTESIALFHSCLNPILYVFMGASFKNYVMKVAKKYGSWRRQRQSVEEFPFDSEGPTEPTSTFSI

CCR1 = molecular target: T4, CCR1 (Homo sapiens, UniProt P32246); type: cell-based
T4 construct: expressed in transfected cells
T4 sequence (P32246 1-355): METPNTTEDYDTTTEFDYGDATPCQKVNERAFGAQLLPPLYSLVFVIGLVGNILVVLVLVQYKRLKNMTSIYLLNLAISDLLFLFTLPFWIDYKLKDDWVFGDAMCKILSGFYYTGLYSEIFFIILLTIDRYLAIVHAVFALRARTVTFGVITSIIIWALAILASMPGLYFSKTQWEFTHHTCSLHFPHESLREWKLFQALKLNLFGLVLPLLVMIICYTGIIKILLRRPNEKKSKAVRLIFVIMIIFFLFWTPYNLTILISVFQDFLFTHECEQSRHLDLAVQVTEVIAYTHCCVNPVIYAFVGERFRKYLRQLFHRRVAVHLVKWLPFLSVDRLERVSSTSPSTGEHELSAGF

CCR8 = CCR8 (Homo sapiens, UniProt P51685); settings: read-out: CCR8 activity, ctrl+ = 100, Figure S2a
CCR8, sequence (P51685 whole entry): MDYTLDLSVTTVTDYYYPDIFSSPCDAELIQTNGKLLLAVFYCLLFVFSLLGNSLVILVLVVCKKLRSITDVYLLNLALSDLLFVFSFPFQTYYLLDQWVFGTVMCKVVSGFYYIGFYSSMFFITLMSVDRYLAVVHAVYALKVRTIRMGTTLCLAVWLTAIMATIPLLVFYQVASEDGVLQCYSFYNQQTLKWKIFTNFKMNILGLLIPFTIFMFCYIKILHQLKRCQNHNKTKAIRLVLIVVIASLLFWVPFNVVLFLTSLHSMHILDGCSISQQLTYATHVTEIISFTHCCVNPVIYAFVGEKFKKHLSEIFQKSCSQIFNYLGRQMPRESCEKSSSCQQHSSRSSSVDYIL

CXCR6 = molecular target: T5, CXCR6 (Homo sapiens, UniProt O00574); type: cell-based
T5 construct: expressed in transfected cells
T5 sequence (O00574 whole entry): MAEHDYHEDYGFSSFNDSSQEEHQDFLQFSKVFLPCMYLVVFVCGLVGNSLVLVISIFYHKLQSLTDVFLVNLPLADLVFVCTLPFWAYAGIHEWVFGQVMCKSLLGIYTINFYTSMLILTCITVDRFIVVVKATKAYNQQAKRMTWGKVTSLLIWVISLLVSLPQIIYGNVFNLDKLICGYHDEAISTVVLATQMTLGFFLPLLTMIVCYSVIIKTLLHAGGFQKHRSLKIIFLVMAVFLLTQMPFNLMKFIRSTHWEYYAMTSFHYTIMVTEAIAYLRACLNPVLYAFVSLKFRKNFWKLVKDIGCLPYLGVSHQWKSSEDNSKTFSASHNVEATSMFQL

CXCR3A = molecular target: T6, CXCR3A (Homo sapiens, UniProt P49682); type: cell-based
T6 construct: expressed in transfected cells; host or cells: U87 cells
T6 sequence (P49682 1-368): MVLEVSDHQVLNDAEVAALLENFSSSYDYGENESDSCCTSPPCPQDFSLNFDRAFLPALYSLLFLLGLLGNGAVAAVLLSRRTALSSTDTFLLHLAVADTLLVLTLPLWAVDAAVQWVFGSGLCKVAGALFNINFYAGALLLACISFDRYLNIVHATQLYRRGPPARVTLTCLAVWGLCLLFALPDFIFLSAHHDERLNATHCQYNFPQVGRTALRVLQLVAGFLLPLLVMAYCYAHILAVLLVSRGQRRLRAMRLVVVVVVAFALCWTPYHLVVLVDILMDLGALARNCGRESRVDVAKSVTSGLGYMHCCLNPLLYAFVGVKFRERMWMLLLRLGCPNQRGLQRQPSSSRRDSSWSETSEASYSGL

[1] = replicate 1, read-out: ACKR2 activity, ctrl+ = 100
[2] = replicate 2, read-out: ACKR2 activity, ctrl+ = 100
[3] = replicate 3, read-out: ACKR2 activity, ctrl+ = 100
[4] = replicate 1, read-out: CCR1 activity, ctrl+ = 100
[5] = replicate 2, read-out: CCR1 activity, ctrl+ = 100
[6] = replicate 3, read-out: CCR1 activity, ctrl+ = 100
[7] = replicate 1, read-out: CXCR6 activity, ctrl+ = 100
[8] = replicate 2, read-out: CXCR6 activity, ctrl+ = 100
[9] = replicate 3, read-out: CXCR6 activity, ctrl+ = 100
[10] = replicate 1, read-out: CXCR3A activity, ctrl+ = 100
[11] = replicate 2, read-out: CXCR3A activity, ctrl+ = 100
[12] = replicate 3, read-out: CXCR3A activity, ctrl+ = 100

Row | SMILES | activation (CCR3; replicate 1) [%] | activation (CCR3; replicate 2) [%] | activation (CCR3; replicate 3) [%] | activation (ACKR2; [1]) [%] | activation (ACKR2; [2]) [%] | activation (ACKR2; [3]) [%] | activation (ACKR4; replicate 2) [%] | activation (ACKR4; replicate 3) [%] | activation (CCR1; [4]) [%] | activation (CCR1; [5]) [%] | activation (CCR1; [6]) [%] | activation (CCR8; replicate 1) [%] | activation (CCR8; replicate 2) [%] | activation (CCR8; replicate 3) [%] | activation (CXCR6; [7]) [%] | activation (CXCR6; [8]) [%] | activation (CXCR6; [9]) [%] | activation (CXCR3A; [10]) [%] | activation (CXCR3A; [11]) [%] | activation (ACKR4; replicate 1) [%] | also measured
1 | C[C@H](NC(=O)CNC(=O)[C@@H](NC(=O)[C@H](Cc1ccccc1)NC(=O)CNC(=O)CNC[C@@H](N)Cc1ccccc1)[C@@H](C)O)C(=O)N[C@@H](CCCNC(=N)N)C(=O)N[C@@H](CCCCN)C(=O)N[C@@H](CO)C(=O)N[C@@H](C)C(=O)N[C@@H](CCCNC(=N)N)C(=O)N[C@@H](CCCCN)C(N)=O [FG Nociceptin 1-13] (H-[X1]GFTGARKSARK-NH2) | 13 | 6.22 | 14.1 | -51.1 | 36.5 | 2.35 | -0.784 | 0.45 | 5.65 | -10.1 | -16.6 | -24.5 | 3.75 | 4.53 | -0.041 | 0.0677 | 0.612 | 2.13 | -1.45 | – | activation (CXCR3A; [12]): -3.37%
2 | CSCC[C@H](NC(=O)[C@H](Cc1ccccc1)NC(=O)CNC(=O)CNC(=O)[C@@H](N)Cc1ccc(O)cc1)C(=O)N[C@@H](CCCNC(=N)N)C(=O)N[C@@H](CCCNC(=N)N)C(=O)N[C@H](C(=O)NCC(=O)N[C@@H](CCCNC(=N)N)C(=O)N1CCC[C@H]1C(=O)N[C@@H](CCC(=O)O)C(=O)N[C@@H](Cc1c[nH]c2ccccc12)C(=O)N[C@@H](Cc1c[nH]c2ccccc12)C(=O)N[C@@H](CCSC)C(=O)N[C@@H](CC(=O)O)C(=O)N[C@@H](Cc1ccc(O)cc1)C(=O)N[C@@H](CCC(N)=O)C(=O)N[C@@H](CCCCN)C(=O)N[C@@H](CCCNC(=N)N)C(=O)N[C@@H](Cc1ccc(O)cc1)C(=O)NCC(=O)O)C(C)C [BAM22] | 5.68 | -4.83 | 17.9 | -3.78 | -1.93 | -0.478 | -1.96 | 5.51 | -7.62 | 9.7 | 10.5 | -18.7 | -21.3 | -4.1 | -0.237 | -0.939 | -1.21 | 3.44 | 2.11 | -4.56 | activation (CXCR3A; [12]): 7.49%
3 | CC[C@H](C)[C@H](NC(=O)[C@H](CCCNC(=N)N)NC(=O)[C@H](CCCNC(=N)N)NC(=O)[C@H](CC(C)C)NC(=O)[C@H](Cc1ccccc1)NC(=O)CNC(=O)CN)C(=O)N[C@@H](CCCNC(=N)N)C(=O)N1CCC[C@H]1C(=O)N[C@@H](CCCCN)C(=O)N[C@@H](CC(C)C)C(=O)N[C@@H](CCCCN)C(=O)N[C@@H](Cc1c[nH]c2ccccc12)C(=O)N[C@@H](CC(=O)O)C(=O)N[C@@H](CC(N)=O)C(=O)N[C@@H](CCC(N)=O)C(=O)O [Dynorphin 2-17] | 12.7 | -19.1 | – | 12.5 | -37.2 | – | -4.71 | – | -21 | -15.3 | – | -6.57 | 0.623 | – | -0.523 | -1.13 | – | -4.16 | -10.2 | -1.91 | –
4 | NC(=O)[C@H](Cc1ccccc1)NC(=O)[C@H](Cc1c[nH]c2ccccc12)NC(=O)[C@@H]1CCCN1C(=O)[C@@H](N)Cc1ccc(O)cc1 [Endomorphin-1] | 18.4 | 4.97 | – | -6 | 11.5 | – | 1.77 | – | 3.57 | -19.2 | – | -25.5 | 19.4 | – | -0.315 | 1.12 | – | 3.34 | -3.63 | 3.4 | –
